The target of this assay is T1, human GHSR1a (Homo sapiens, UniProt Q92847).
T1 construct: expressed in transfected cells
T1 sequence (Q92847 whole entry): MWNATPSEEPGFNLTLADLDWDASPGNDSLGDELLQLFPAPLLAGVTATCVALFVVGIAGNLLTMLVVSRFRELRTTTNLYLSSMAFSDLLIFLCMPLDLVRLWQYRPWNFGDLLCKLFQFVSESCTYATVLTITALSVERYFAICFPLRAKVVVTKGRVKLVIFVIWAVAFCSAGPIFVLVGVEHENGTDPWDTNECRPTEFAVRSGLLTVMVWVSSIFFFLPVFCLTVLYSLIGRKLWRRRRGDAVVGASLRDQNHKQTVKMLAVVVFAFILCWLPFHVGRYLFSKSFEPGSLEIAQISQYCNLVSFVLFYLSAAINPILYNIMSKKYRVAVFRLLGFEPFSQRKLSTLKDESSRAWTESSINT
The experiment in a line: Aequorin luminescent functional assay (intracellular Ca2+, ghrelin-stimulated). The settings on record: stable cell line expressing human GHSR1a and apoaequorin; final ghrelin 3x EC50 (20 nM); read-out: Class (based on IC50 values). The procedure:
IC50 values of inventive compounds may be assessed as follows. An aequorin (Euroscreen) luminescent assay (Stabels et al., 1997) measuring the intracellular Ca^2+ concentration was used as the functional assay to evaluate the potency of the compounds. A stable cell line, expressing human GHSR1a and apoaequorin in mitochondria was used in the aequorin assay. 5×10^6 cells per mL were incubated at room temperature in HyClone Media (Perbio) supplemented with 2 μM coelenterazine (Molecular Probes). After 2 hrs cells were diluted to 1×10^6 cells per ml in HyClone Medium.
50 μL of the cell suspension was added to each well of a 96-well plate containing 50 μL of compound, diluted in HyClone Medium. The cell suspension/compound mixture was incubated for 30 seconds before 50 μL of a 9× EC50 concentrations of a human ghrelin solution, in HyClone Medium, was injected. The final Ghrelin concentration was 3× EC50 (20 nM). Aequorin luminescence elicited by intracellular Ca^2+ in the cells was recorded for a total of 60 seconds with a microplate luminometer (Microlumate, Berthold). IC50 of the compounds in this assay was calculated with Prism 4.
With `CC(C)C(C(=O)N1CCC(NCCc2ccc(F)cc2)CC1)N1CCc2ccc(Oc3ccc(F)cc3F)cc2C1=O` (centres unmarked) [7-(2,4-difluoro-phenoxy)-2-(1-{4-[2-(4-fluoro-phenyl)-ethylamino]-piperidine-1-carbonyl}-2-methyl-propyl)-3,4-dihydro-2H-isoquinolin-1-one], the half-inhibitory concentration (IC50) (commonly the concentration that gives 50% inhibition) is no more than 10 nM. Then `Cc1ccccc1Oc1ccc2c(c1)C(=O)N(C(C(=O)N1CCC(NCCc3ccc(F)cc3)CC1)C(C)C)CCN2C` (centres unmarked) [4-(1-{4-[2-(4-fluoro-phenyl)-ethylamino]-piperidine-1-carbonyl}-2-methyl-propyl)-1-methyl-7-o-tolyloxy-1,2,3,4-tetrahydrobenzo[e][1,4]diazepin-5-one], with 10 to 50 nM; and `CC(C)C(COC(=O)NC1CCN(Cc2ccc(F)cc2)CC1)N1CC(=O)Nc2ccc(Oc3ccc(F)cc3)cc2C1=O` (centres unmarked) [[1-(4-Fluoro-benzyl)-piperidin-4-yl]-carbamic acid 2-[7-(4-fluoro-phenoxy)-2,5-dioxo-1,2,3,5-tetrahydro-benzo[e][1,4]diazepin-4-yl]-3-methyl-butyl ester], with 50 to 500 nM. For the molecule `CC(C)NCc1cccc(C(C(C)C)N2CC(=O)Nc3ccc(Oc4ccc(F)cc4F)cc3C2=O)c1` (centres unmarked) [7-(2,4-difluoro-phenoxy)-4-{1-[3-(isopropylamino-methyl)-phenyl]-2-methyl-propyl}-3,4-dihydro-1H-benzo[e][1,4]diazepine-2,5-dione], the concentration for half-maximal inhibition (IC50) is no more than 10 nM.

On to `Cc1cccc(C)c1Oc1ccc2c(c1)C(=O)N(C(C(=O)N1CCC(NCCc3ccc(F)cc3)CC1)C(C)C)CC(=O)N2` (centres unmarked) [7-(2,6-dimethyl-phenoxy)-4-(1-{4-[2-(4-fluoro-phenyl)-ethylamino]-piperidine-1-carbonyl}-2-methyl-propyl)-3,4-dihydro-1H-benzo[e][1,4]diazepine-2,5-dione], for which the concentration for half-maximal inhibition (IC50) is no more than 10 nM.

Take `CC(C)C(c1cccc(CN(C)C)c1)N1CC(=O)Nc2ccc(Oc3ccc(F)cc3F)cc2C1=O` (centres unmarked) [7-(2,4-difluoro-phenoxy)-4-[1-(3-dimethylaminomethyl-phenyl)-2-methyl-propyl]-3,4-dihydro-1H-benzo[e][1,4]diazepine-2,5-dione]: the IC50 was no more than 10 nM.

For the molecule `CC(C)C(C(=O)N1CCC(NC2CC2)CC1)N1CCc2ccc(Oc3ccc(F)cc3F)cc2C1=O` (centres unmarked) [2-{1-[4-(cyclopropyl-amino)-piperidine-1-carbonyl]-2-methyl-propyl}-7-(2,4-difluoro-phenoxy)-3,4-dihydro-2H-isoquinolin-1-one], the concentration for half-maximal inhibition (IC50) is no more than 10 nM. The result for `C[C@H](CO)NCc1cccc([C@@H](C2CC2)N2CCc3ccc(Oc4ccc(F)cc4F)cc3C2=O)n1` [2-((R)-cyclopropyl(6-(((R)-1-hydroxypropan-2-ylamino)methyl)pyridin-2-yl)methyl)-7-(2,4-difluorophenoxy)-3,4-dihydroisoquinolin-1(2H)-one] reads no more than 10 nM; that for `Cc1cccc(C)c1Oc1ccc2c(c1)C(=O)N(C(C(=O)NC1CCN(C3CCc4ccccc43)CC1)C(C)C)CC(=O)N2` (centres unmarked) [2-[7-(2,6-dimethyl-phenoxy)-2,5-dioxo-1,2,3,5-tetrahydro-benzo[e][1,4]diazepin-4-yl]-N-(1-indan-1-yl-piperidin-4-yl)-3-methyl-butyramide], no more than 10 nM; that for `CC(C)C(C(=O)OC1CCN(Cc2ccccc2)CC1)N1CC(=O)Nc2ccc(Oc3ccccc3)cc2C1=O` (centres unmarked) [2-(2,5-dioxo-7-phenoxy-1,2,3,5-tetrahydrobenzo[e][1,4]diazepin-4-yl)-3-methyl-butyric acid 1-benzyl-piperidin-4-yl ester], 10 to 50 nM. For the molecule `CCc1ccccc1Oc1ccc2c(c1)C(=O)N(C(C(=O)N1CCC(NC3CC3)CC1)C(C)C)CC(=O)N2` (centres unmarked) [4-[1-(4-cyclopropylamino-piperidine-1-carbonyl)-2-methyl-propyl]-7-(2-ethyl-phenoxy)-3,4-dihydro-1H-benzo[e][1,4]diazepine-2,5-dione], the half-maximal inhibitory concentration (IC50) fell in the range of 10 to 50 nM.

Values taken from patent US7572783B2 (Amgen Inc., priority 2004, dated 2009).
